Reference: patent publication US12042478B2, “(R)-2-[(2H-1,3-benzodioxol-5-yl)methyl]pyrrolidine and processes for preparation, compositions and uses thereof” (Pharmala Biotech Inc., priority 2022, dated 2024)

How the values were obtained:
C57 and BTBR mice [1] = assay: Radiotelemetry of home cage locomotor activity; type: in vivo, mouse; details: for locomotor stimulant effects: IP, C57 and BTBR mice
Procedure: (§1) The radiotelemetry assay was conducted in adult male C57 and BTBR mice (n=6 per group) in a dedicated testing room where ambient light, sound, and human contact were tightly controlled.
(§2) Prior to surgical implantation of radiotelemetry probes, mice received 3 mg/kg meloxicam (IP), and anesthesia was induced with 4% inhaled isoflurane and maintained with 1-3% isoflurane (as needed) throughout the procedure at a flow rate of 1.5 litres/minute. The abdominal area of each animal was treated with depilatory cream, then sanitized with 3 alternating scrubs with iodine and alcohol. A rostral-caudal cut approximately 1.5 cm in length was made with sterile skin scissors, providing access to the intraperitoneal cavity. A cylindrical glass-encapsulated radiotelemetry probe (model ER-4000 E-Mitter, Mini Mitter, Bend, OR, USA) was then inserted. These probes measure 15.5 mm×6.5 mm and weigh approximately 1 gram. Incisions were closed (skin layer and muscle layer separately) using reverse cutting 5-0 Vicryl absorbable sutures for the muscle layer and 5-0 nylon suture material for the skin layer. Surgeries were carried out at least 7 days before initiation of experimental conditions, allowing time for incisions to heal and for animals to recover normal body weights. Following surgery, all implanted mice were individually housed in Plexiglas cages within the telemetry room for the duration of all experiments. Implanted transmitters produce activity- and temperature-modulated signals which are sent to a receiver (model ER-4000 Receiver, Mini Mitter Co., Inc.) underneath each cage. Following use, telemetry probes were removed from carcasses, wiped with alcohol swabs, and stored in the disinfectant solution until re-use.
At least 7 days after surgical implantation of radiotelemetry probes, mice in their individual home cages were placed atop a telemetry energizer/receiver, which powers probes and transmits their data to an interfaced computer. […]

DAT = DAT (Homo sapiens, UniProt Q01959); assay: QSAR model predicted IC50, DAT; details: ratio = 1/DAT IC50:1/SERT IC50, from predicted IC50
Procedure: In silico studies (QSAR and docking) are useful tools to understand drug mechanisms, and they are relatively cheaper and faster than experiments. A QSAR model was created for each monoamine transporter. Additionally, the docking properties of phenethylamines were investigated.
QSAR: DAT, SERT and NET IC50 values were collected from the literature for 73 phenethylamines. Three different software's were used for descriptor calculations, and almost 2000 descriptors were calculated. Highly correlated descriptors were eliminated before multi-linear regression (MLR) analysis. All descriptors were merged with experimental inhibition values in QSARiNS software. The multi-Criteria Decision-Making tool of QSARiNS was used to pick the best model.
The predicted IC^50 (mM) values of the test molecules generated based on the QSAR developed as described above are presented in Table 4.

C57 and BTBR mice [2] = assay: Radiotelemetry of core temperature; type: in vivo, mouse; details: for core body temperature change: 5.6 mg/kg IP; for effect on core temperature: 10 mg/kg; for core temperature response, comparison of strains: C57 vs BTBR mice
Procedure: as §1, §2
At least 7 days after surgical implantation of radiotelemetry probes, mice in their individual home cages were placed atop a telemetry energizer/receiver, which powers probes and transmits their data to an interfaced computer. Upon initiation of an experimental session, the computer collects two data updates from the probes at 5 min intervals: core temperature (in ° C.) on one channel, and locomotor counts (in arbitrary units, depending on the relative position of the probe atop the receiver) on the other. After at least 60 minutes of baseline data collection, mice were removed from their cages, injected with saline or a given dose of a specific drug, then returned to the home cage 24 hours of data collection.
Food and water were always freely available in the home cage. Mice were injected with ascending doses of a given drug, with at least 48 hours separating doses. Because there are few studies of drug effects in BTBR mice, the first drug dose tested occasionally elicited unexpectedly large locomotor effects in these animals. In these cases, smaller drug doses were tested next, after a washout period of at least one full day.

Chain of DAT (Q01959 whole entry, species assumed): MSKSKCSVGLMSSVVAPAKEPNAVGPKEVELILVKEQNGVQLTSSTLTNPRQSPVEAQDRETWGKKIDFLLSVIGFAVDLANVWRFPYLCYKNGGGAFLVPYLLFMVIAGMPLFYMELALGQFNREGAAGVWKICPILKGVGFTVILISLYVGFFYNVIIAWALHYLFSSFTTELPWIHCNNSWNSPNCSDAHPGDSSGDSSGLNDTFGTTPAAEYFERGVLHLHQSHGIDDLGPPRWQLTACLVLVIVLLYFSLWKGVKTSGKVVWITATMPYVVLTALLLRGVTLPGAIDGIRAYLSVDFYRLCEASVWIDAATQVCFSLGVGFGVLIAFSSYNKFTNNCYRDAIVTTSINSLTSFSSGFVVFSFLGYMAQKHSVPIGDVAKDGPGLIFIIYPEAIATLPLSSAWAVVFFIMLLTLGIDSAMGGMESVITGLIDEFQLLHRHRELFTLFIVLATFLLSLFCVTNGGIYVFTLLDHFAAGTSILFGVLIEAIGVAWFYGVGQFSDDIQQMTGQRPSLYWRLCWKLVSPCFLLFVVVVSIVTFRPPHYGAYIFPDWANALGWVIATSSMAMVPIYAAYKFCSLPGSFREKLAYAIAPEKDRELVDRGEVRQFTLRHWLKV

Row | Structure (SMILES) | locomotor effect (C57 and BTBR mice [1]; 56 mg/kg i.p., BTBR mice, significantly different from saline) | locomotor stimulant effects (C57 and BTBR mice [1]; doses as high as 30 mg/kg) | DAT/SERT (calculated) (DAT) | core body temperature change (C57 and BTBR mice [2]; either mouse strain) | effect on core temperature (C57 and BTBR mice [2]; C57 and BTBR mice) | core temperature response, comparison of strains (C57 and BTBR mice [2]; IP) | rise in core body temperature (C57 and BTBR mice [2]; IP, any of the doses tested, C57 and BTBR mice) | dose at which hypothermic effects are noted (C57 and BTBR mice [2]; IP, both strains) [mg/kg] | hypothermic effects after injection (C57 and BTBR mice [2]; IP, both strains, greater in C57 at 10, 18, 30 and 56 mg/kg) | locomotor stimulant effects (C57 and BTBR mice [1]; any dose tested) | core body temperature change (C57 and BTBR mice [2]; C57 mice)
1 | c1cc2c(cc1C[C@H]1CCCN1)OCO2 [(R)-I, (R)-2-[(2H-1,3-benzodioxol-5-yl)methyl]pyrrolidine] | locomotor effect stronger than C57 mice at the same dose | did not have significant locomotor stimulant effects | 0.022 | did not elicit a rise or drop in core body temperature | hypothermic effect | more acute response in C57 mice | did not result in a rise in core body temperature | ≥ 10 | dose-dependent hypothermic effects |  | 
2 | c1cc2c(cc1C[C@@H]1CCCN1)OCO2 [(S)-I, (S)-2-[(2H-1,3-benzodioxol-5-yl)methyl]pyrrolidine] |  |  | 0.043 |  | hypothermic effect | more acute response in C57 mice |  |  |  | neither strain exhibited locomotor stimulant effects | significant drop in temperature
